From US20090291973A1, “Novel Quinazoline Derivatives and Their Medical Use” (NeuroSearch A/S, priority 2005, published 2009)

Tests used:
human Kv72+3 channels = target: T1, human Kv72+3 channels (Homo sapiens, UniProt O43525+O43526); test: patch-clamp, HEK293 cell lines stably expressing the human Kv72+3 channels; assay type: cell-based; conditions: 3 μM, HEK293 cells stably expressing human Kv72+3 channels
T1 construct: expressed in transfected cells

activation compared to control (human Kv72+3 channels) | melting point | Structure (SMILES)
60% | – | CC(C)c1nc2ccccc2c(=O)n1NC(=O)C(C)c1cccc(F)c1 (centres unmarked) [Compound B16, 2-(3-Fluoro-phenyl)-N-(2-isopropyl-4-oxo-4H-quinazolin-3-yl)-propionamide]
87% | – | COc1ccc(C(C)C(=O)Nn2c(C(C)C)nc3cc(C(F)(F)F)ccc3c2=O)cc1 (centres unmarked) [Compound B20, N-(2-Isopropyl-4-oxo-7-trifluoromethyl-4H-quinazolin-3-yl)-2-(4-methoxy-phenyl)-propionamide]

The next lines start with the molecule.

Structure (SMILES) | activation compared to control (human Kv72+3 channels) | melting point
CC(C)c1nc2ccccc2c(=O)n1NC(=O)C(c1ccccc1)C(C)C (centres unmarked) [Compound B2, N-(2-Isopropyl-4-oxo-4H-quinazolin-3-yl)-3-methyl-2-phenyl-butyramide] | – | 188 to 193 °C
CCc1nc2cc(F)ccc2c(=O)n1NC(=O)C(C)c1ccccc1 (centres unmarked) [Compound A1, N-(2-Ethyl-7-fluoro-4-oxo-4H-quinazolin-3-yl)-2-phenyl-propionamide] | – | 57 to 63 °C
CC(C)c1nc2ccccc2c(=O)n1NC(=O)C(C)c1ccccc1 (centres unmarked) [Compound B1, N-(2-Isopropyl-4-oxo-4H-quinazolin-3-yl)-2-phenyl-propionamide] | – | 48 to 55 °C
